Data from patent publication US20240189239A1, “PROCESS FOR CONTINUOUS HOT MELT GRANULATION OF LOW SOLUBLE PHARMACEUTICALS” (Merck Patent GmbH, priority 2021, published 2024).

Assay: Dissolution measurement of granules of Example 1 (paddle, 900 ml SGFsp, 37° C.)
Format: physicochemical
Conditions: paddle 75 rpm, 50 mg ITZ, up to 120 min
Method: For measuring the dissolution, granules as obtained in Example 1 were used directly without further processing. 3 samples per temperature setup were used. 500 mg 10% ITZ granulate were weighted (Mettler Toledo Delta Range XP105) which equals 50 mg ITZ API.
Dissolution was performed using a Sotax AT7 smart with an online Photometer Specord 200+ from Analytik Jena. As a medium 900 ml SGF.sp (20 g NaCl, 800 ml 0.1 M HCl ad 10.0 L VE-water) at 37° C.±0.5 was used. The following settings were used: Rotation speed 75 rpm; Paddle method; Pre-filter: Glass Mircofiber Filters GE Whatmann GF/D Diameter 25 mm, 5 mm HELMA flow-through cuvette, Sampling Points: 5,20,35,50,60,120 Min.
The granulation with polyvinyl alcohol at a temperature between 140° C. to 170° C. increases the solubility of the compound (lines 2 to 6). At 175° C. the solubility suddenly increases. With higher temperature solubility is further enhanced. An immediate release can be observed for temperatures of 180° C. to 190° C. (lines 8 to 10). With a further temperature increase above the melting temperature of PCA (line 11; 200° C.) the drug release rates are delayed.

solubility / drug release of itraconazole in the release medium (FIG. 3): very low solubility
SMILES: CCC(C)n1ncn(-c2ccc(N3CCN(c4ccc(OCC5COC(Cn6cncn6)(c6ccc(Cl)cc6Cl)O5)cc4)CC3)cc2)c1=O (stereo not shown) [crystalline itraconazole, itraconazole]
